Values of other authors in patent US5714511A, “Selective prevention of organ injury in sepsis and shock using selection release of nitric oxide in vulnerable organs” (The United States of America as represented by the …, priority 1995, dated 1998).

How the values were obtained:
[1] = system: hemorrhagic shock in rats

Compound | inhibition of DNA synthesis (DNA synthesis) | protective effect in hemorrhagic shock [1] | solubility in aqueous media
CC(=O)N[C@H](C(=O)O)C(C)(C)SN=O [SNAP, S-nitroso-N-acetyl-penicillamine] | effective at inhibiting DNA synthesis | significant protective effects of SNAP in hemorrhagic shock in rats | 
Nitric oxide |  |  | limited solubility in aqueous media
